Data set [1] concerns the target T1, Solute carrier organic anion transporter family member 1A1 (Rattus norvegicus, UniProt P46720).
T1 sequence (P46720 whole entry): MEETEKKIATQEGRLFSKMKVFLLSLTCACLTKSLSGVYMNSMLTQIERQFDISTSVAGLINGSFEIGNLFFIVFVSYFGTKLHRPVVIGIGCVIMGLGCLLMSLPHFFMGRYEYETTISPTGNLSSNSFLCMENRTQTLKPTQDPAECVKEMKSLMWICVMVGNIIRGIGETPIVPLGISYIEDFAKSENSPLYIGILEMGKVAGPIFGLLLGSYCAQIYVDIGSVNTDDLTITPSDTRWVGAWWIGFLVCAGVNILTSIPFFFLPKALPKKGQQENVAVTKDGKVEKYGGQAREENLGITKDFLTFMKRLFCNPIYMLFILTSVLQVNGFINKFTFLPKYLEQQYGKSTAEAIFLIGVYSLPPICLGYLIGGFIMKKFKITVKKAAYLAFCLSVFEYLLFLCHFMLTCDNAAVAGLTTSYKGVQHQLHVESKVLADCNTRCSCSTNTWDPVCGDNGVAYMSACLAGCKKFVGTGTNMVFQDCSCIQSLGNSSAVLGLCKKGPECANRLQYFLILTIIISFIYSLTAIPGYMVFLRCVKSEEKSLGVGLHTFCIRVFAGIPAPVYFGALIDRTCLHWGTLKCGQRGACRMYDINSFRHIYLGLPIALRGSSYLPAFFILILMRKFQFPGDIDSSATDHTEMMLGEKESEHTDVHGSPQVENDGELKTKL
The data set is described as follows: TP_TRANSPORTER: inhibition of BSP uptake (BSP: 2 uM, GC: 100 uM) in Xenopus laevis oocytes. The data set is classed as functional, cell-based. Conditions: oocyte.

Data set [2] concerns the target T1, Solute carrier organic anion transporter family member 1A1. Nature of the data set: TP_TRANSPORTER: inhibition of Taurocholate uptake (Taurochorate: 20 uM, GC: 200 uM) in Xenopus laevis oocytes. Format: functional, cell-based. Conditions: oocyte.
Data set [3] has the same target. Nature of the data set: TP_TRANSPORTER: inhibition of BSP uptake (BSP: 2 uM, DIDS: 100 uM) in Xenopus laevis oocytes. The data set is classed as functional, cell-based, Oocyte. Conditions: probe BSP.
For data set [4] the target is unchanged. Nature of the data set: TP_TRANSPORTER: inhibition of Taurocholate uptake (Taurochorate: 20 uM, TCDC: 200 uM) in Xenopus laevis oocytes. The data set is classed as functional, cell-based. Conditions: oocyte.
Data set [5] has the same target. Nature of the data set: TP_TRANSPORTER: inhibition of BSP uptake (BSP: 2 uM, TCDC: 100 uM) in Xenopus laevis oocytes. The data set is classed as functional, cell-based. Conditions: oocyte.
Data set [6] has the same target. The data set is described as follows: TP_TRANSPORTER: inhibition of Taurocholate uptake (Taurochorate: 20 uM, UDCA: 200 uM) in Xenopus laevis oocytes. Conditions: oocyte. The data set is classed as functional, cell-based.
Data set [7] shares this target. The data set is described as follows: TP_TRANSPORTER: inhibition of BSP uptake (BSP: 2 uM, UDCA: 100 uM) in Xenopus laevis oocytes. Conditions: oocyte. Format: functional, cell-based.
The target is the same in data set [8]. Nature of the data set: TP_TRANSPORTER: inhibition of Taurocholate uptake (Taurochorate: 20 uM, TDCA: 200 uM) in Xenopus laevis oocytes. The data set is classed as functional, cell-based. Conditions: oocyte.
Data set [9] has the same target. The data set is described as follows: TP_TRANSPORTER: inhibition of BSP uptake (BSP: 2 uM, TDCA: 100 uM) in Xenopus laevis oocytes. Format: functional, cell-based. Conditions: oocyte.
Data set [10] shares this target. Nature of the data set: TP_TRANSPORTER: inhibition of Taurocholate uptake (Taurochorate: 20 uM, DCA: 200 uM) in Xenopus laevis oocytes. Conditions: oocyte. Format: functional, cell-based.
For data set [11] the target is unchanged. The data set is described as follows: TP_TRANSPORTER: inhibition of BSP uptake (BSP: 2 uM, DCA: 100 uM) in Xenopus laevis oocytes. The data set is classed as functional, cell-based. Conditions: oocyte.
Data set [12] has the same target. Nature of the data set: TP_TRANSPORTER: inhibition of Taurocholate uptake (Taurochorate: 20 uM, GDCA: 200 uM) in Xenopus laevis oocytes. The data set is classed as functional, cell-based. Conditions: oocyte.
The target is the same in data set [13]. Nature of the data set: TP_TRANSPORTER: inhibition of BSP uptake (BSP: 2 uM, GDCA: 100 uM) in Xenopus laevis oocytes. The data set is classed as functional, cell-based. Conditions: oocyte.
Data set [14] shares this target. Nature of the data set: TP_TRANSPORTER: inhibition of Taurocholate uptake (Taurochorate: 20 uM, GCDCA: 200 uM) in Xenopus laevis oocytes. The data set is classed as functional, cell-based. Conditions: oocyte.
Data set [15] shares this target. The data set is described as follows: TP_TRANSPORTER: inhibition of BSP uptake (BSP: 2 uM, GCDCA: 100 uM) in Xenopus laevis oocytes. Format: functional, cell-based. Conditions: oocyte.
For data set [16] the target is unchanged. Nature of the data set: TP_TRANSPORTER: inhibition of BSP uptake (BSP: 2 uM, Probenecid: 1000 uM) in Xenopus laevis oocytes. The data set is classed as functional, cell-based, Oocyte. Conditions: probe BSP.
Data set [17] shares this target. The data set is described as follows: TP_TRANSPORTER: inhibition of Taurocholate uptake (Taurochorate: 20 uM, CDCA: 200 uM) in Xenopus laevis oocytes. Format: functional, cell-based. Conditions: oocyte.
The target is the same in data set [18]. Nature of the data set: TP_TRANSPORTER: inhibition of BSP uptake (BSP: 2 uM, CDCA: 100 uM) in Xenopus laevis oocytes. Format: functional, cell-based. Conditions: oocyte.
For data set [19] the target is unchanged. The data set is described as follows: TP_TRANSPORTER: inhibition of BSP uptake (BSP: 2 uM, ICG: 100 uM) in Xenopus laevis oocytes. The data set is classed as functional, cell-based, Oocyte. Conditions: probe BSP, read-out: Activity.
Data set [20] shares this target. Nature of the data set: TP_TRANSPORTER: inhibition of BSP uptake (BSP: 1 uM, Bilirubin: 10 uM) in Xenopus laevis oocytes. The data set is classed as functional, cell-based, Oocyte. Conditions: probe BSP.

Take `C[C@H](CCC(=O)NCC(=O)O)[C@H]1CC[C@H]2[C@@H]3[C@H](O)C[C@@H]4C[C@H](O)CC[C@]4(C)[C@H]3C[C@H](O)[C@]12C` [GLYCOCHOLIC ACID]: the Activity result in data set [1] is “inhibitor [(at a rough estimate) 45 % of control]”; in data set [2] it was “inhibitor [(at a rough estimate) 40 % of control]”.
In data set [3], `O=S(=O)(O)c1cc(N=C=S)ccc1/C=C/c1ccc(NC=S)cc1S(=O)(=O)O` gave an inhibition at 100 µM of 52%.
On to `C[C@H](CCC(=O)NCCS(=O)(=O)O)[C@H]1CC[C@H]2[C@@H]3[C@H](O)C[C@@H]4C[C@H](O)CC[C@]4(C)[C@H]3CC[C@]12C` [TAUROCHENODEOXYCHOLATE], for which the Activity entry in data set [4] and in data set [5] was “inhibitor [(at a rough estimate) 5 % of control]” throughout.
Turning to `C[C@H](CCC(=O)O)[C@H]1CC[C@H]2[C@@H]3[C@@H](O)C[C@@H]4C[C@H](O)CC[C@]4(C)[C@H]3CC[C@]12C` [URSODIOL], the Activity entry in data set [6] is “inhibitor [(at a rough estimate) 10 % of control]”; in data set [7], “inhibitor [(at a rough estimate) 15 % of control]”.
For the molecule `C[C@H](CCC(=O)NCCS(=O)(=O)O)[C@H]1CC[C@H]2[C@@H]3CC[C@@H]4C[C@H](O)CC[C@]4(C)[C@H]3C[C@H](O)[C@]12C` [TAURODEOXYCHOLIC ACID], the Activity entry in data set [8] was “inhibitor [(at a rough estimate) 5 % of control]”; in [9], “inhibitor [(at a rough estimate) 10 % of control]”.
On to `C[C@H](CCC(=O)O)[C@H]1CC[C@H]2[C@@H]3CC[C@@H]4C[C@H](O)CC[C@]4(C)[C@H]3C[C@H](O)[C@]12C` [DEOXYCHOLIC ACID], for which the values for the Activity result in data set [10] and in [11] were “inhibitor [(at a rough estimate) 5 % of control]” and “inhibitor [(at a rough estimate) 15 % of control]”, respectively.
On to `C[C@H](CCC(=O)NCC(=O)O)[C@H]1CC[C@H]2[C@@H]3CC[C@@H]4C[C@H](O)CC[C@]4(C)[C@H]3C[C@H](O)[C@]12C` [GLYCODEOXYCHOLATE], for which the Activity entry in data set [12] was “inhibitor [(at a rough estimate) 10 % of control]”; in data set [13], “inhibitor [(at a rough estimate) 15 % of control]”.
With `C[C@H](CCC(=O)NCC(=O)O)[C@H]1CC[C@H]2[C@@H]3[C@H](O)C[C@@H]4C[C@H](O)CC[C@]4(C)[C@H]3CC[C@]12C` [GLYCOCHENODEOXYCHOLATE], the Activity entry in [14] was “inhibitor [(at a rough estimate) 5 % of control]”; in [15] it was “inhibitor [(at a rough estimate) 10 % of control]”.
Molecule `CCCN(CCC)S(=O)(=O)c1ccc(C(=O)O)cc1` [PROBENECID] registered an inhibition at 1000 µM in [16] of 74%.
For `C[C@H](CCC(=O)O)[C@H]1CC[C@H]2[C@@H]3[C@H](O)C[C@@H]4C[C@H](O)CC[C@]4(C)[C@H]3CC[C@]12C` [CHENODIOL], the results for the Activity result in [17] and in data set [18] were “inhibitor [(at a rough estimate) 5 % of control]” and “inhibitor [(at a rough estimate) 15 % of control]”, respectively.
`CC1(C)C(/C=C/C=C/C=C/C=C2\N(CCCCS(=O)(=O)O)c3ccc4ccccc4c3C2(C)C)=[N+](CCCCS(=O)(=O)[O-])c2ccc3ccccc3c21` [INDOCYANINE GREEN]: the inhibition at 100 µM in data set [19] turned out to be 81%.
`C=CC1=C(C)/C(=C/c2[nH]c(Cc3[nH]c(/C=C4\NC(=O)C(C)=C4C=C)c(C)c3CCC(=O)O)c(CCC(=O)O)c2C)NC1=O` [BILIRUBIN] had an inhibition at 10 µM in [20] of 43%.

These data come from ChEMBL document CHEMBL2073877, “Functional characterization of the basolateral rat liver organic anion transporting polypeptide” (Hepatology, 1994).
